Measurements reported in US8338597B2, “Pyridones useful as inhibitors of kinases” (Vertex Pharmaceuticals Incorporated, priority 2004, dated 2012).

Experiments:
Format in all cases: biochemical
Itk = target: T1, Itk (Homo sapiens, UniProt Q08881); test: ITK inhibition assay, radioactive-phosphate incorporation; conditions: [γ-33P]ATP, SAM68 peptide, 25° C.
T1 sequence (Q08881 1-620): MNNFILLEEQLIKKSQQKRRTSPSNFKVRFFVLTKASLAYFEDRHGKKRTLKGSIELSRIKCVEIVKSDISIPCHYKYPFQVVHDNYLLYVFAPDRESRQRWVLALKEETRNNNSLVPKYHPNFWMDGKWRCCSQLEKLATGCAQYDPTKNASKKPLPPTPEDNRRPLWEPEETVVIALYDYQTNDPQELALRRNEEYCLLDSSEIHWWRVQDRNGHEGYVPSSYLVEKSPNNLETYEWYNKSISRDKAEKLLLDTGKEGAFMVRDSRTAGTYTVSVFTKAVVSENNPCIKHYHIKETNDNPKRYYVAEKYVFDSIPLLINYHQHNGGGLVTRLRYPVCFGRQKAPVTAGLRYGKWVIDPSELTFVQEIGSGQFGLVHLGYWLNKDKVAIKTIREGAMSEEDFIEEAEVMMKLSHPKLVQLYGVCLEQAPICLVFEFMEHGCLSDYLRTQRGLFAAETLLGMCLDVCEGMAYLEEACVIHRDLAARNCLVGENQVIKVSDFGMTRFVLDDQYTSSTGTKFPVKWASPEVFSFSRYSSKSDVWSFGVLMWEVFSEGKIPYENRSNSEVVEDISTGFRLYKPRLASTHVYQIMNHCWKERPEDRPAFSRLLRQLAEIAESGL

Rlk = target: T2, Rlk (Homo sapiens, UniProt P42681); test: RLK inhibition assay, standard coupled enzyme assay; conditions: 100 μM ATP, 40 nM Rlk, 30° C.
T2 sequence (P42681 1-527): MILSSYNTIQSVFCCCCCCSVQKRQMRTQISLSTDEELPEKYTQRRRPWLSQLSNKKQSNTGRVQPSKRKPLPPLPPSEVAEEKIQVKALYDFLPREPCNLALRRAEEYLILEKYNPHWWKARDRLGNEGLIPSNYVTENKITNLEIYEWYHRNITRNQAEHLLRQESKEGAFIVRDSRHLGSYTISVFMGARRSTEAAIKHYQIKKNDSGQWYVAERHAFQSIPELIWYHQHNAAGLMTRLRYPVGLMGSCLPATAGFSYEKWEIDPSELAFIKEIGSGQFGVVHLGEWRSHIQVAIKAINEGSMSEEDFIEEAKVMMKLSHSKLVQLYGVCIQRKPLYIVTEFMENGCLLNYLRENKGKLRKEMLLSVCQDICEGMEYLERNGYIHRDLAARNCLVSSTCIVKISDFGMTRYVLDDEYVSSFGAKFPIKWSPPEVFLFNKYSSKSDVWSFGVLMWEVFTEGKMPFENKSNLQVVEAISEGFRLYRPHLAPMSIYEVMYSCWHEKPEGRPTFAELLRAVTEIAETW
Procedure: Compounds were screened for their ability to inhibit Rlk using a standard coupled enzyme assay (Fox et al., Protein Sci., (1998) 7, 2249). Assays were carried out in a mixture of 20 mM MOPS (pH 7.0), 10 mM MgCl2, 0.1% BSA and 1 mM DTT. Final substrate concentrations in the assay were 100 μM ATP (Sigma Chemicals) and 10 μM peptide (Poly Glu:Tyr 4:1). Assays were carried out at 30° C. and in the presence of 40 nM Rlk. Final concentrations of the components of the coupled enzyme system were 2.5 mM phosphoenolpyruvate, 300 μM NADH, 30 μg/ml pyruvate kinase and 10 μg/ml lactate dehydrogenase.
An assay stock buffer solution was prepared containing all of the reagents listed above, with the exception of ATP and the test compound of interest. 60 μl of the stock solution was placed in a 96 well plate followed by addition of […] of DMSO stock containing serial dilutions of the test compound (typically starting from a final concentration of 7.5 μM). The plate was preincubated for 10 minutes at 30° C. and the reaction initiated by addition of 5 μl of ATP. Initial reaction rates were determined with a Molecular Devices SpectraMax Plus plate reader over a 10 minute time course. IC50 and Ki data were calculated from non-linear regression analysis using the Prism software package (GraphPad Prism version 3.0cx for Macintosh, GraphPad Software, San Diego Calif., USA).

Btk = Btk (Homo sapiens, UniProt Q06187); test: BTK inhibition assay, radioactive-phosphate incorporation; conditions: 50 μM [γ-33P]ATP, 25 nM Btk, 25° C.
Procedure: Compounds were screened for their ability to inhibit Btk using a radioactive-phosphate incorporation assay at Vertex Pharmaceuticals. Assays were carried out in a mixture of 20 mM MOPS (pH 7.0), 10 mM MgCl2, 0.1% BSA and 1 mM DTT. Final substrate concentrations in the assay were 50 μM [γ-33P]ATP (200mCi 33P ATP/mmol ATP, Amersham Pharmacia Biotech, Amersham, UK/Sigma Chemicals) and 2 μM peptide (SAM68 D332-443). Assays were carried out at 25° C. and in the presence of 25 nM Btk. An assay stock buffer solution was prepared containing all of the reagents listed above, with the exception of the peptide and the test compound of interest. 75 μL of the stock solution was placed in a 96 well plate followed by addition of 2 μL of DMSO stock containing serial dilutions of the test compound (typically starting from a final concentration of 15 μM) in duplicate (final DMSO concentration 2%). The plate was preincubated for 15 minutes at 25° C. and the reaction initiated by addition of 25 μL peptide (final concentration 2 μM). Background counts were determined by the addition of […] 0.2M phosphoric acid+0.01% TWEEN to control wells containing assay stock buffer and DMSO prior to initiation with peptide.
The reaction was stopped after 10 minutes by the addition of […] 0.2M phosphoric acid+0.01% TWEEN. A multiscreen phosphocellulose filter 96-well plate (Millipore, Cat no. MAPHN0B50) was pretreated with 100 μL 0.2M phosphoric acid+0.01% TWEEN 20 prior to the addition of […] of the stopped assay mixture. The plate was washed with 4×200 μL 0.2M phosphoric acid+0.01% TWEEN 20. After drying, 30 μL Optiphase ‘SuperMix’ liquid scintillation cocktail (Perkin Elmer) was added to the well prior to scintillation counting (1450 Microbeta Liquid Scintillation Counter, Wallac).
After removing mean background values for all of the data points, Ki(app) data were calculated from non-linear regression analysis using the Prism software package (GraphPad Prism version 3.0cx for Macintosh, GraphPad Software, San Diego Calif., USA).

Sequence of Btk (Q06187 whole entry, species assumed): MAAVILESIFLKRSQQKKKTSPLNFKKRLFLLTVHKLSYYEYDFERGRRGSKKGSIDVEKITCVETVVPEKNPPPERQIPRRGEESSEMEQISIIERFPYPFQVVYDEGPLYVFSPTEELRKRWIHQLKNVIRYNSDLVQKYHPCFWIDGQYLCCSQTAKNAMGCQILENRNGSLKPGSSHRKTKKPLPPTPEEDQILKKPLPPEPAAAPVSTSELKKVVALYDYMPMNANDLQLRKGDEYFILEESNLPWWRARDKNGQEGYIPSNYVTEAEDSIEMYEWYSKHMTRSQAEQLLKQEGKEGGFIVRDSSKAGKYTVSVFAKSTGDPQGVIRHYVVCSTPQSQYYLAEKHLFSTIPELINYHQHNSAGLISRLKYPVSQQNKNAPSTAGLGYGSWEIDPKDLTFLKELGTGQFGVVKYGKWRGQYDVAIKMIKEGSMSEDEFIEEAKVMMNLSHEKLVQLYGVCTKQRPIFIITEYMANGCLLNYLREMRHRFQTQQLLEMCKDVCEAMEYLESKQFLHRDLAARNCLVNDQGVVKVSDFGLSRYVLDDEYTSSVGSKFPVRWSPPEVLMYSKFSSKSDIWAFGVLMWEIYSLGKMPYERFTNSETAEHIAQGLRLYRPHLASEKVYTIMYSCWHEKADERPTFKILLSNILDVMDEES

Row | Compound | Ki (Itk) | Ki (Rlk) | Ki (Btk)
1 | CNc1nccc(-c2c[nH]c(=O)c(NC(=O)c3ccc(N4CCC[C@H]4CN4CCCC4)cc3)c2)n1 [II-80] | < 100 nM | < 1000 nM | < 500 nM
2 | CC(C)(N)CNc1cccc(-c2c[nH]c(=O)c(NC(=O)c3ccc(N4CCCCC4)cc3)c2)n1 [II-112] | < 100 nM | < 1000 nM | < 500 nM
3 | CNc1nccc(-c2c[nH]c(=O)c(NC(=O)c3ccc(N4CCNCC4)cc3)c2)n1 [II-77] | < 100 nM | < 1000 nM | < 500 nM
4 | CNc1nccc(-c2c[nH]c(=O)c(NC(=O)c3ccc(N4CCN(C(C)C)CC4)cc3)c2)n1 [II-78] | < 100 nM | < 1000 nM | < 500 nM
5 | CNCCNc1cccc(-c2c[nH]c(=O)c(NC(=O)c3ccc(N4CCCCC4)cc3)c2)n1 [II-51] | < 100 nM |  | < 500 nM
6 | CNCCNc1nccc(-c2c[nH]c(=O)c(NC(=O)c3ccc(N4CCCCC4)cc3)c2)n1 [II-63] | < 100 nM |  | < 500 nM
7 | CC(O)[C@@H](CO)Nc1cccc(-c2c[nH]c(=O)c(NC(=O)c3ccc(N4CCCCC4)cc3)c2)n1 (some centres unmarked) [II-149] | 100 to 1000 nM | > 1000 nM | > 500 nM
8 | CNc1cncc(-c2c[nH]c(=O)c(NC(=O)c3ccc(N4CCCCC4)cc3)c2)n1 [II-114] |  | > 1000 nM | > 500 nM
9 | CN(C)CCNc1nccc(-c2c[nH]c(=O)c(NC(=O)c3ccc(N4CCCCC4)cc3)c2)n1 [II-58] | < 100 nM |  | < 500 nM
